Test results from US20060276464A1, “Diarylsulfone sulfonamides and use thereof” (Wyeth, priority 2005, published 2006).
Values joined by “and” are separate entries in the source; they are usually repeats but may differ in a detail not shown here. Identical values can stand only once. Like-named read-outs stand apart in the source and are kept apart here.

What was measured:
SFRP-1 [1] = target: T1, SFRP-1 (Homo sapiens, UniProt Q8N474); test: Cell-based assay for in vitro measurement of SFRP-1/SARP2 antagonist activity (U2OS cells co-transfected with 16x TCF-tk-Luciferase reporter, Wnt and hSFRP-1); conditions: for fold induction at 10 µM / fold induction at 15 µM: U2OS; for fold induction at 10 µM: read-out: Fold Induction with SFRP-1, U2OS cells, single dose 10 μM, luciferase reporter, fold induction over SFRP-1 control;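 for all read-outs here: U2OS cells co-transfected with a TCF-tk luciferase reporter, a Wnt vector, hSFRP-1 or empty vector and CMV-βgal, luciferase luminescence read in cell lysates alongside βgal activity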
T1 sequence (Q8N474 32-314): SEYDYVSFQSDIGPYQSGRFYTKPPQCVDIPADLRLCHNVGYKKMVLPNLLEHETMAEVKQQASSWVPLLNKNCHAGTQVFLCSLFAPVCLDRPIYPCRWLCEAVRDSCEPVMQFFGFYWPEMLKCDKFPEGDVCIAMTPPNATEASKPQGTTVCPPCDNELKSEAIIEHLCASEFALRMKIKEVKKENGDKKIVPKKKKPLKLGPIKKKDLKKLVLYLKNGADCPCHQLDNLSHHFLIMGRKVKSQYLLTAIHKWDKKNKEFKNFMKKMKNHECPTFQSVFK

SFRP-1 [2] = target: T1, SFRP-1; test: Fluorescence polarization binding assay (competitive displacement of a probe compound from SFRP-1); conditions: fluorescence anisotropy, 45 nM SFRP-1, 20 nM probe;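 note: test compound competes with a fluorescent probe held by SFRP-1, seen as a drop in probe anisotropy after incubation in darkness, with anisotropy as function of rising compound dose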
[3] = read-out: Fold Induction with SFRP-1, Conc 15 μM, with SFRP-1, fold induction over SFRP-1 control, single dose
[4] = read-out: Fold Induction without SFRP-1, Conc 15 μM, without SFRP-1, single dose
[5] = read-out: Fold Induction with SFRP-1, Conc 15 μM, single dose, luciferase reporter, fold induction over SFRP-1 control, cells with SFRP-1
[6] = read-out: Fold Induction without SFRP-1, Conc 15 μM, single dose, luciferase reporter, cells without SFRP-1 (specificity control)

Structure (SMILES) | fold induction at 10 µM (SFRP-1 [1]) | IC50 (SFRP-1 [2]) | fold induction at 15 µM (SFRP-1 [1]; [3]) | fold induction at 15 µM (SFRP-1 [1]; [4]) | fold induction at 15 µM (SFRP-1 [1]; [5]) | fold induction at 15 µM (SFRP-1 [1]; [6]) | EC50 (SFRP-1 [1]) [nM]
CC(C)c1ccc(S(=O)(=O)c2ccc(F)cc2)cc1S(=O)(=O)NC1CCSCC1 [Example 815, 5-[(4-fluorophenyl)sulfonyl]-2-isopropyl-N-(tetrahydro-2H-thiopyran-4-yl)benzenesulfonamide] | 2.2 | 1800 nM | – | – | – | – | –
Cc1ccc(S(=O)(=O)c2ccc(C(C)(C)C)cc2)cc1S(=O)(=O)NC1CCOCC1 [Example 440, 5-[(4-tert-butylphenyl)sulfonyl]-2-methyl-N-(tetrahydro-2H-pyran-4-yl)benzenesulfonamide] | – | 3000 nM | 1.8 | 1.1 | – | – | –
Cc1ccc(S(=O)(=O)c2ccc(F)cc2)cc1S(=O)(=O)NC1CCN(C(=O)N(C)C)CC1 [Example 587, 4-[({5-[(4-fluorophenyl)sulfonyl]-2-methylphenyl}sulfonyl)amino]-N,N-dimethylpiperidine-1-carboxamide] | – | 5000 nM | – | – | 1.2 | 1.2 | –
CCc1ccc(S(=O)(=O)c2ccccc2)cc1S(=O)(=O)NCCc1ccccn1 [Example 223, 2-ethyl-5-(phenylsulfonyl)-N-(2-pyridin-2-ylethyl)benzenesulfonamide] | – | 900 nM | 2.6 | 0.8 | – | – | –
Cc1ccc(S(=O)(=O)c2ccccc2)cc1S(=O)(=O)NC1CCN(S(=O)(=O)c2ccccc2)CC1 [Example 448, 2-methyl-5-(phenylsulfonyl)-N-[1-(phenylsulfonyl)piperidin-4-yl]benzenesulfonamide] | – | 120 nM and 170 nM | 2 | 1.2 | – | – | –
CC(C)c1ccc(S(=O)(=O)c2ccc(F)cc2)cc1S(=O)(=O)NC1CCN(C(=S)Nc2cccc([N+](=O)[O-])c2)CC1 [Example 699, 4-[({5-[(4-fluorophenyl)sulfonyl]-2-isopropylphenyl}sulfonyl)amino]-N-(3-nitrophenyl)piperidine-1-carbothioamide] | 2.9 | 1600 nM | – | – | – | – | 9800
CCCc1ccc(S(=O)(=O)c2ccccc2)cc1S(=O)(=O)NCCc1ccccc1 [Example 550, N-(2-phenylethyl)-5-(phenylsulfonyl)-2-propylbenzenesulfonamide] | – | 1300 nM | – | – | 2.9 | 1.1 | –
Cc1ccc(S(=O)(=O)c2ccccc2)cc1S(=O)(=O)NC1CCN(C(=O)c2ccc(N(C)C)cc2)CC1 [Example 499, N-{1-[4-(dimethylamino)benzoyl]piperidin-4-yl}-2-methyl-5-(phenylsulfonyl)benzenesulfonamide] | – | 900 nM | – | – | 2.4 | 1 | –
Cc1ccc(S(=O)(=O)c2ccccc2)cc1S(=O)(=O)NC1CCSCC1 [Example 798, 2-methyl-5-(phenylsulfonyl)-N-(tetrahydro-2H-thiopyran-4-yl)benzenesulfonamide] | 1.8 | 4000 nM | – | – | – | – | –
Cc1ccc(S(=O)(=O)c2ccc(NCc3ccccc3)cc2)cc1S(=O)(=O)NCCCn1ccnc1 [Example 370, 5-{[4-(benzylamino)phenyl]sulfonyl}-N-[3-(1H-imidazol-1-yl)propyl]-2-methylbenzenesulfonamide] | – | 500 nM | 1.8 | 0.8 | – | – | –
CCc1ccc(S(=O)(=O)c2ccccc2)cc1S(=O)(=O)NCCCOC [Example 227, 2-ethyl-N-(3-methoxypropyl)-5-(phenylsulfonyl)benzenesulfonamide] | – | 4000 nM | 2.7 | 0.8 | – | – | –
O=C(O)C1CCCC(NS(=O)(=O)c2cc(S(=O)(=O)c3ccccc3)ccc2C(F)(F)F)C1 (centres unmarked) [Example 967, 3-({[5-(phenylsulfonyl)-2-(trifluoromethyl)phenyl]sulfonyl}amino)cyclohexanecarboxylic acid] | 2.1 | 2500 nM | – | – | – | – | –
Cc1ccc(S(=O)(=O)c2ccccc2)cc1S(=O)(=O)NC1CCN(C(=O)N(C)C)CC1 [Example 503, N,N-dimethyl-4-({[2-methyl-5-(phenylsulfonyl)phenyl]sulfonyl}amino)piperidine-1-carboxamide] | – | 2400 nM | – | – | 2.7 | 0.9 | –
CC(C)c1ccc(S(=O)(=O)c2ccc(N3CCN(C(=O)OC(C)(C)C)CC3)cc2)cc1S(=O)(=O)NC1CCOCC1 [Example 625, tert-butyl 4-[4-({4-isopropyl-3-[(tetrahydro-2H-pyran-4-ylamino)sulfonyl]phenyl}sulfonyl)phenyl]piperazine-1-carboxylate] | – | 3000 nM | – | – | 2.2 | 1.1 | –
Cc1ccc(S(=O)(=O)c2ccccc2)cc1S(=O)(=O)NC1CCN(C(=O)OCC(C)C)CC1 [Example 498, isobutyl 4-({[2-methyl-5-(phenylsulfonyl)phenyl]sulfonyl}amino)piperidine-1-carboxylate] | – | 2200 nM | – | – | 1.8 | 1 | –
COc1ccc(CCNS(=O)(=O)c2cc(S(=O)(=O)c3ccccc3)ccc2C(F)(F)F)cc1 [Example 939, N-[2-(4-methoxyphenyl)ethyl]-5-(phenylsulfonyl)-2-(trifluoromethyl)benzenesulfonamide] | 2.2 | 700 nM | – | – | – | – | –
COC(=O)c1ccc(CNS(=O)(=O)c2cc(S(=O)(=O)c3ccccc3)ccc2C(F)(F)F)cc1 [Example 950, methyl 4-[({[5-(phenylsulfonyl)-2-(trifluoromethyl)phenyl]sulfonyl}amino)methyl]benzoate] | 2.6 | 1800 nM | – | – | – | – | 1840
O=S(=O)(N[C@H](CO)Cc1ccccc1)c1cc(S(=O)(=O)c2ccccc2)ccc1C(F)(F)F [Example 720, N-[(1S)-1-benzyl-2-hydroxyethyl]-5-(phenylsulfonyl)-2-(trifluoromethyl)benzenesulfonamide] | 2 | 6000 nM | – | – | – | – | –
CC(C)c1ccc(S(=O)(=O)c2ccc(F)cc2)cc1S(=O)(=O)NCCn1ccnc1 [Example 318, 5-[(4-fluorophenyl)sulfonyl]-N-[2-(1H-imidazol-1-yl)ethyl]-2-isopropylbenzenesulfonamide] | – | 400 nM and 500 nM and 600 nM and 700 nM and 900 nM | 3.9 | 1.1 | – | – | –

Continued, values first:

fold induction at 10 µM (SFRP-1 [1]) | IC50 (SFRP-1 [2]) | fold induction at 15 µM (SFRP-1 [1]; [3]) | fold induction at 15 µM (SFRP-1 [1]; [4]) | fold induction at 15 µM (SFRP-1 [1]; [5]) | fold induction at 15 µM (SFRP-1 [1]; [6]) | EC50 (SFRP-1 [1]) [nM] | Structure (SMILES)
– | 300 nM | – | – | 3.9 | 1.1 | – | Cc1nccn1CCNS(=O)(=O)c1cc(S(=O)(=O)c2ccc(F)cc2)ccc1C(C)C [Example 583, 5-[(4-fluorophenyl)sulfonyl]-2-isopropyl-N-[2-(2-methyl-1H-imidazol-1-yl)ethyl]benzenesulfonamide]
– | 500 nM | – | – | 3.4 | 1.1 | – | CCc1nccn1CCNS(=O)(=O)c1cc(S(=O)(=O)c2ccc(F)cc2)ccc1C(C)C [Example 584, N-[2-(2-ethyl-1H-imidazol-1-yl)ethyl]-5-[(4-fluorophenyl)sulfonyl]-2-isopropylbenzenesulfonamide]
3.8 | 500 nM | – | – | – | – | 807 | O=S(=O)(NCCn1ccnc1)c1cc(S(=O)(=O)c2ccccc2F)ccc1C(F)(F)F [Example 845, 5-[(2-fluorophenyl)sulfonyl]-N-[2-(1H-imidazol-1-yl)ethyl]-2-(trifluoromethyl)benzenesulfonamide]
2.5 | 400 nM | – | – | – | – | 1980 | O=S(=O)(NC1CCOCC1)c1cc(S(=O)(=O)c2cccc(Cl)c2)ccc1C(F)(F)F [Example 754, 5-[(3-chlorophenyl)sulfonyl]-N-(tetrahydro-2H-pyran-4-yl)-2-(trifluoromethyl)benzenesulfonamide]
– | 200 nM | – | – | – | – | 236 | O=C(c1ccc(-c2ccccc2)nc1)N1CCC(NS(=O)(=O)c2cc(S(=O)(=O)c3ccccc3)ccc2C(F)(F)F)CC1 [Example 1024, N-{1-[(6-phenylpyridin-3-yl)carbonyl]piperidin-4-yl}-5-(phenylsulfonyl)-2-(trifluoromethyl)benzenesulfonamide]
2.7 | 400 nM | – | – | – | – | 2090 | O=S(=O)(NC1CCN(Cc2nn[nH]n2)CC1)c1cc(S(=O)(=O)c2ccccc2)ccc1C(F)(F)F [Example 885, 5-(phenylsulfonyl)-N-[1-(2H-tetrazol-5-ylmethyl)piperidin-4-yl]-2-(trifluoromethyl)benzenesulfonamide]
– | 200 nM | – | – | 3.6 | 1.2 | – | CC(C)c1ccc(S(=O)(=O)c2ccc3[nH]ccc3c2)cc1S(=O)(=O)NCCc1ccccn1 [Example 540, 5-(1H-indol-5-ylsulfonyl)-2-isopropyl-N-(2-pyridin-2-ylethyl)benzenesulfonamide]
– | 290 nM | – | – | – | – | 898 | O=S(=O)(NC1CCN(CCN2CCOCC2)CC1)c1cc(S(=O)(=O)c2ccccc2)ccc1C(F)(F)F [Example 1019, N-[1-(2-morpholin-4-ylethyl)piperidin-4-yl]-5-(phenylsulfonyl)-2-(trifluoromethyl)benzenesulfonamide]
